In PubChem BioAssay (NCI):
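Results reflect a 48-hour exposure of cells in 96-well plates to compound at five concentrations. TGI: concentration producing complete growth inhibition.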

Legend:
Assay in all cases: NCI tumour cell line growth inhibition, 48 h
CCRF-CEM leukemia = tested on: CCRF-CEM leukemia
HCT-116 colon = tested on: HCT-116 colon
COLO 205 colon = tested on: COLO 205 colon
SN12C renal = tested on: SN12C renal
MALME-3M melanoma = tested on: MALME-3M melanoma
PC-3 prostate = tested on: PC-3 prostate
NCI-H226 lung = tested on: NCI-H226 lung
SK-MEL-2 melanoma = tested on: SK-MEL-2 melanoma
SK-MEL-5 melanoma = tested on: SK-MEL-5 melanoma
DU-145 prostate = tested on: DU-145 prostate
MDA-MB-435 = tested on: MDA-MB-435
IGROV1 ovarian = tested on: IGROV1 ovarian
MOLT-4 leukemia = tested on: MOLT-4 leukemia
MCF7 breast = tested on: MCF7 breast
SK-MEL-28 melanoma = tested on: SK-MEL-28 melanoma
HS 578T breast = tested on: HS 578T breast
MDA-N = tested on: MDA-N
NCI/ADR-RES ovarian = tested on: NCI/ADR-RES ovarian
786-0 renal = tested on: 786-0 renal
EKVX NSCLC = tested on: EKVX NSCLC
HOP-92 NSCLC = tested on: HOP-92 NSCLC
HOP-62 NSCLC = tested on: HOP-62 NSCLC
OVCAR-8 ovarian = tested on: OVCAR-8 ovarian
K-562 leukemia = tested on: K-562 leukemia
CAKI-1 renal = tested on: CAKI-1 renal
NCI-H522 lung = tested on: NCI-H522 lung
UACC-257 melanoma = tested on: UACC-257 melanoma
A549 NSCLC = tested on: A549 NSCLC
TK-10 renal = tested on: TK-10 renal
SF-268 CNS = tested on: SF-268 CNS
OVCAR-3 ovarian = tested on: OVCAR-3 ovarian
HCT-15 colon = tested on: HCT-15 colon
UO-31 renal = tested on: UO-31 renal
OVCAR-4 ovarian = tested on: OVCAR-4 ovarian
A498 renal = tested on: A498 renal
KM12 colon = tested on: KM12 colon
SF-539 CNS = tested on: SF-539 CNS
UACC-62 melanoma = tested on: UACC-62 melanoma
SW-620 colon = tested on: SW-620 colon
ACHN renal = tested on: ACHN renal
MDA-MB-231 breast = tested on: MDA-MB-231 breast
LOX IMVI melanoma = tested on: LOX IMVI melanoma
OVCAR-5 ovarian = tested on: OVCAR-5 ovarian
NCI-H460 lung = tested on: NCI-H460 lung
SNB-75 CNS = tested on: SNB-75 CNS
RXF 393 renal = tested on: RXF 393 renal
U251 CNS = tested on: U251 CNS
HCC-2998 colon = tested on: HCC-2998 colon
HL-60(TB) leukemia = tested on: HL-60(TB) leukemia
HT29 colon = tested on: HT29 colon
T-47D breast = tested on: T-47D breast
SF-295 CNS = tested on: SF-295 CNS
NCI-H23 lung = tested on: NCI-H23 lung
BT-549 breast = tested on: BT-549 breast
SK-OV-3 ovarian = tested on: SK-OV-3 ovarian
M14 melanoma = tested on: M14 melanoma
SNB-19 CNS = tested on: SNB-19 CNS
RPMI-8226 leukemia = tested on: RPMI-8226 leukemia

## O=c1[nH]nc(Cc2ccccc2)n1/N=C/c1ccc([N+](=O)[O-])cc1
CCRF-CEM leukemia
  TGI: > 100 µM
HCT-116 colon
  TGI: > 100 µM
COLO 205 colon
  TGI: > 100 µM
SN12C renal
  TGI: > 100 µM
MALME-3M melanoma
  TGI: > 100 µM
PC-3 prostate
  TGI: > 100 µM
NCI-H226 lung
  TGI: > 100 µM
SK-MEL-2 melanoma
  TGI: > 100 µM
SK-MEL-5 melanoma
  TGI: > 100 µM
DU-145 prostate
  TGI: > 100 µM
MDA-MB-435
  TGI: > 100 µM
IGROV1 ovarian
  TGI: > 100 µM
MOLT-4 leukemia
  TGI: > 100 µM
MCF7 breast
  TGI: > 100 µM
SK-MEL-28 melanoma
  TGI: > 100 µM
HS 578T breast
  TGI: > 100 µM
MDA-N
  TGI: > 100 µM
NCI/ADR-RES ovarian
  TGI: > 100 µM
786-0 renal
  TGI: > 100 µM
EKVX NSCLC
  TGI: > 100 µM
HOP-92 NSCLC
  TGI: > 100 µM
HOP-62 NSCLC
  TGI: > 100 µM
OVCAR-8 ovarian
  TGI: > 100 µM
K-562 leukemia
  TGI: > 100 µM
CAKI-1 renal
  TGI: > 100 µM
NCI-H522 lung
  TGI: > 100 µM
UACC-257 melanoma
  TGI: > 100 µM
A549 NSCLC
  TGI: > 100 µM
TK-10 renal
  TGI: > 100 µM
SF-268 CNS
  TGI: > 100 µM
OVCAR-3 ovarian
  TGI: > 100 µM
HCT-15 colon
  TGI: > 100 µM
UO-31 renal
  TGI: > 100 µM
OVCAR-4 ovarian
  TGI: > 100 µM
A498 renal
  TGI: > 100 µM
KM12 colon
  TGI: > 100 µM
SF-539 CNS
  TGI: > 100 µM
UACC-62 melanoma
  TGI: > 100 µM
SW-620 colon
  TGI: > 100 µM
ACHN renal
  TGI: > 100 µM
MDA-MB-231 breast
  TGI: > 100 µM
LOX IMVI melanoma
  TGI: > 100 µM
OVCAR-5 ovarian
  TGI: > 100 µM
NCI-H460 lung
  TGI: > 100 µM
SNB-75 CNS
  TGI: > 100 µM
RXF 393 renal
  TGI: > 100 µM
U251 CNS
  TGI: > 100 µM
HCC-2998 colon
  TGI: > 100 µM
HL-60(TB) leukemia
  TGI: > 100 µM
HT29 colon
  TGI: > 100 µM
T-47D breast
  TGI: > 100 µM
SF-295 CNS
  TGI: > 100 µM
NCI-H23 lung
  TGI: > 100 µM
BT-549 breast
  TGI: > 100 µM

## COC(=O)c1ccc2c(c1)sc1nc(-c3ccc(OC)cc3)cn12
CCRF-CEM leukemia
  TGI: > 100 µM
HCT-116 colon
  TGI: > 100 µM
COLO 205 colon
  TGI: > 100 µM
SN12C renal
  TGI: > 100 µM
MALME-3M melanoma
  TGI: > 100 µM
PC-3 prostate
  TGI: > 100 µM
NCI-H226 lung
  TGI: > 100 µM
SK-OV-3 ovarian
  TGI: > 100 µM
SK-MEL-2 melanoma
  TGI: > 100 µM
M14 melanoma
  TGI: > 100 µM
SK-MEL-5 melanoma
  TGI: 53.6 µM
DU-145 prostate
  TGI: > 100 µM
MDA-MB-435
  TGI: > 100 µM
IGROV1 ovarian
  TGI: > 100 µM
MOLT-4 leukemia
  TGI: > 100 µM
MCF7 breast
  TGI: > 100 µM
SK-MEL-28 melanoma
  TGI: > 100 µM
HS 578T breast
  TGI: > 100 µM
MDA-N
  TGI: > 100 µM
NCI/ADR-RES ovarian
  TGI: > 100 µM
786-0 renal
  TGI: > 100 µM
EKVX NSCLC
  TGI: > 100 µM
HOP-92 NSCLC
  TGI: > 100 µM
HOP-62 NSCLC
  TGI: > 100 µM
OVCAR-8 ovarian
  TGI: > 100 µM
K-562 leukemia
  TGI: > 100 µM
CAKI-1 renal
  TGI: > 100 µM
NCI-H522 lung
  TGI: > 100 µM
UACC-257 melanoma
  TGI: > 100 µM
A549 NSCLC
  TGI: > 100 µM
TK-10 renal
  TGI: > 100 µM
SNB-19 CNS
  TGI: > 100 µM
SF-268 CNS
  TGI: > 100 µM
OVCAR-3 ovarian
  TGI: > 100 µM
HCT-15 colon
  TGI: > 100 µM
UO-31 renal
  TGI: > 100 µM
OVCAR-4 ovarian
  TGI: > 100 µM
A498 renal
  TGI: > 100 µM
KM12 colon
  TGI: > 100 µM
SF-539 CNS
  TGI: > 100 µM
RPMI-8226 leukemia
  TGI: > 100 µM
UACC-62 melanoma
  TGI: > 100 µM
SW-620 colon
  TGI: > 100 µM
ACHN renal
  TGI: > 100 µM
MDA-MB-231 breast
  TGI: > 100 µM
LOX IMVI melanoma
  TGI: > 100 µM
OVCAR-5 ovarian
  TGI: > 100 µM
NCI-H460 lung
  TGI: > 100 µM
SNB-75 CNS
  TGI: > 100 µM
RXF 393 renal
  TGI: > 100 µM
U251 CNS
  TGI: > 100 µM
HCC-2998 colon
  TGI: > 100 µM
HL-60(TB) leukemia
  TGI: > 100 µM
HT29 colon
  TGI: > 100 µM
T-47D breast
  TGI: > 100 µM
SF-295 CNS
  TGI: > 100 µM
NCI-H23 lung
  TGI: > 100 µM
BT-549 breast
  TGI: > 100 µM
